Here are results for two compounds from patent US20130189347A1, “DISEASE TREATMENT DRUG” (priority 2010, published 2013).

Series [1] deals with B16 melanoma cells. Put plainly: Early-stage cancer: rate of increase in tumor volume in B16 melanoma-transplanted mice. Type of series: in vivo, ICR mice. Particulars: CDDP 0.9 mM, 0.2 ml/mouse/dose via tail vein. As for the experimental part:
Five female, six-week-old IRC mice were assigned per group.
iron porphyrin complex/PLLA60wt%-F88 micelles (polymer capsule, 5 mM/0.7 wt %) were used.
As the sample drug (concentration) of the comparative example, CDDP (0.9 mM) was used.
(§1) B16 melanoma cells were used.
The amount of cancer cells injected was 1×10^5/mouse/0.05 ml, which is 1/10 that for end-stage cancer.
Anchoring of the cancer was confirmed on the 10th day after cancer cell transplantation. The mice were separated into five mice each for the required number of groups (three groups: two groups for the sample drugs and one control group). At the same time, the short diameter and the long diameter of the cancer cell volume in each mouse were measured every two days using calipers. The following equation was calculated:
(§2) [tumor volume]=½×[long diameter]×[short diameter]^2

The subject of series [2] is B16 melanoma cells. The experiment in a line: End-stage cancer: rate of increase in tumor volume in B16 melanoma-transplanted mice. The series is classed as in vivo, C57BL/6CrSlC mice. As for the experimental part:
iron porphyrin complex/pH-sensitive liposomes (5 mM/36 mM) and iron porphyrin complex/DPPC-PEG liposomes (5 mM/36 mM) were used […]
as §1
Anchoring of the cancer was confirmed on the 10th day after cancer cell transplantation. The mice were separated into five mice each for the required number of groups (four groups: three groups for the sample drugs and one control group). At the same time, the short diameter and the long diameter of the cancer cell volume in each mouse were measured every two days using calipers. The following equation was calculated:
as §2

Series [3] is described as follows: End-stage cancer experiment: weight fluctuation, death and side effects. As for the experimental part: Five female, six-week-old C57BL/6CrSlC mice were assigned per group.
B16 melanoma dispersed in phosphate buffered saline (PBS) was injected into the foot pads (sole) of the mice (C57BL/6, female, six-weeks-old), and cancer was transplanted. The amount of cancer cells injected was 1×10^6/mouse/0.05 ml. The site of injection was within the limited area of the foot pad, in an environment where numerous fine blood vessels, such as capillaries, are present.
In addition, administration of the sample drugs (administered amount: 0.1 ml/mouse/dose) was started on the 13th day after cancer cell transplantation. Drug administration was conducted a total of four times, via tail vein every four days. The weight of each mouse was measured every two days.

For `[NH2][Pt]([NH2])([Cl])[Cl]` [CDDP, Cisplatin], in the series on B16 melanoma cells [1], the “suppression of increase in tumor volume” value is “about ten”.
Consider `CO[C@@]12[C@H](COC(N)=O)C3=C(C(=O)C(C)=C(N)C3=O)N1C[C@@H]1N[C@@H]12` [MMC, mitomycin], for which the “observation of the transplanted foot” value with B16 melanoma cells [2] is on record as “necrosis occurred in the foot itself”. In the series with B16 melanoma cells [2] (four days after administration of the drug), the “course of tumor volume” value is reported as “sudden increase in tumor volume”. Besides, the mice that died result in series [3] (during 20 days of observation, five mice per group, MMC 0.9 mM, 0.5 mM) was “two”. In addition, the “weight increase and decrease (weight fluctuation)” value in series [3] (end-stage cancer, weight measured every two days, FIG. 5) is given as “severe weight fluctuations”.
